Measured values: the supplement of paper PMC4649846

Assays:
MDA-MB-231 [1] = experiment: drug sensitivity score (DSS); higher = more sensitive; extreme values may be limits of the assay; conditions: incubation time: 72 h
Method: (§1)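 MDA-MB-231 breast cancer cells were transfected with siBRCA1 or non-targeting siControl, then seeded 24 h later at 4000 cells/well in 384-well plates holding 198 drugs at 5 concentrations. Viability was read by CellTiter-Blue after 72 h at 37 °C. Dose-response curves were fitted in Dotmatics to give IC50 and a drug sensitivity score (DSS: area under the curve relative to the area between the 10% threshold and 100% inhibition, normalised by the log of the top response). The dose range is not stated. IC50 values of 8333.3 or 4166.7 nM mark no response (top dose), and 0.8333 nM is the lower limit.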

MDA-MB-231 [2] = conditions: incubation time: 72 h
Method: as §1

[3] = siRNA: siControl (non-targeting)

Compound | drug sensitivity score (MDA-MB-231 [1]; siRNA: siBRCA1) | drug sensitivity score (MDA-MB-231 [1]; [3]) | IC50 of cell viability (MDA-MB-231 [2]; siRNA: siBRCA1) [nM] | IC50 of cell viability (MDA-MB-231 [2]; [3]) [nM]
C=CCn1c(=O)c2cnc(Nc3ccc(N4CCN(C)CC4)cc3)nc2n1-c1cccc(C(C)(C)O)n1 [MK1775] | 13.2 | 14.3 | 348 | 230
Cc1ccc(-c2cc(C(F)(F)F)nn2-c2ccc(S(N)(=O)=O)cc2)cc1 [Celecoxib] | 3.29 | 0 | 1350 | > 4170
COCC1(CO)C(=O)C2CCN1CC2 (stereo unspecified) [Prima-1 Met] | 0 | 0 | > 4170 | > 4170
Nc1cccc2c1CN(C1CCC(=O)NC1=O)C2=O (stereo unspecified) [Lenalidomide] | 0 | 0 | > 4170 | > 4170
CC(=O)Nc1ccc(C(=O)Nc2ccccc2N)cc1 [CI-994] | 0 | 2.63 | > 4170 | 865
O=C1CCC(N2C(=O)c3ccccc3C2=O)C(=O)N1 (stereo unspecified) [Thalidomide] | 0 | 0 | > 4170 | > 4170
Nc1ncn([C@@H]2O[C@H](CO)[C@@H](O)[C@H]2O)c(=O)n1 [Azacitidine] | 0 | 0 | > 4170 | > 4170
CC(C)C[C@H](NC(=O)[C@H](Cc1ccccc1)NC(=O)c1cnccn1)B(O)O [Bortezomib] | 37.9 | 32.2 | 6.91 | 18.6
CC(C)C[C@H](NC(=O)[C@H](CCc1ccccc1)NC(=O)CN1CCOCC1)C(=O)N[C@@H](Cc1ccccc1)C(=O)N[C@@H](CC(C)C)C(=O)[C@@]1(C)CO1 [Carfilzomib] | 39.3 | 33.7 | 4.01 | 13.6
CCCS(=O)(=O)Nc1ccc(F)c(C(=O)c2c[nH]c3ncc(-c4ccc(Cl)cc4)cc23)c1F [PLX4032] | 0 | 0 | > 4170 | > 4170
C[C@]12CC[C@@H]3c4ccc(O)cc4C[C@@H](CCCCCCCCC[S+]([O-])CCCC(F)(F)C(F)(F)F)[C@H]3[C@@H]1CC[C@@H]2O (stereo partly specified) [Fulvestrant] | 0 | 0 | > 4170 | > 4170
CN1CCN(CCOc2cc(OC3CCOCC3)c3c(Nc4c(Cl)ccc5c4OCO5)ncnc3c2)CC1 [Saracatinib] | 6.55 | 10.4 | 652 | 90.5
CC[C@H](CO)Nc1nc(NCc2ccccc2)c2ncn(C(C)C)c2n1 [Roscovitine] | 2.37 | 0 | > 4170 | > 4170
O=NN(CCCl)C(=O)NC1CCCCC1 [Lomustine] | 0 | 0 | > 4170 | > 4170
N[C@@H](Cc1ccc(N(CCCl)CCCl)cc1)C(=O)O [Melphalan] | 0 | 0 | > 4170 | > 4170
C[C@]1(c2nc3c(C(N)=O)cccc3[nH]2)CCCN1 [Veliparib] | 0 | 0 | > 4170 | > 4170
COc1cc(Nc2ncc3c(n2)-c2ccc(Cl)cc2C(c2c(F)cccc2OC)=NC3)ccc1C(=O)O [MLN8237 (Alisertib)] | 4.61 | 8.75 | 917 | 358
CC(=O)O[C@H]1C(=O)[C@@]2(C)[C@H]([C@H](OC(=O)c3ccccc3)[C@]3(O)C[C@H](OC(=O)[C@H](O)[C@@H](NC(=O)c4ccccc4)c4ccccc4)C(C)=C1C3(C)C)[C@]1(OC(C)=O)CO[C@@H]1C[C@@H]2O [Paclitaxel] | 29.8 | 27.2 | 6.6 | 11.2
CC[C@@]1(O)C(=O)OCc2c1cc1n(c2=O)Cc2cc3c(CN(C)C)c(O)ccc3nc2-1 [Topotecan] | 10.4 | 10.6 | 661 | 766
Nc1nc(F)nc2c1ncn2[C@@H]1O[C@H](CO)[C@@H](O)[C@@H]1O [Fludarabine] | 0 | 3.39 | > 4170 | 333

Compound | drug sensitivity score (MDA-MB-231 [1]; siRNA: siBRCA1) | drug sensitivity score (MDA-MB-231 [1]; [3]) | IC50 of cell viability (MDA-MB-231 [2]; siRNA: siBRCA1) [nM] | IC50 of cell viability (MDA-MB-231 [2]; [3]) [nM]
O=P1(NCCCl)OCCCN1CCCl (stereo unspecified) [Ifosfamide] | 0 | 0 | > 4170 | > 4170
CO[C@@H](C(=O)N1Cc2[nH]nc(NC(=O)c3ccc(N4CCN(C)CC4)cc3)c2C1)c1ccccc1 [Danusertib] | 6.5 | 10.1 | 1910 | 1160
CC1=C(/C=C/C(C)=C/C=C/C(C)=C/C(=O)O)C(C)(C)CCC1 [Tretinoin] | 0.0479 | 0 | > 4170 | > 4170
CC(C)(C)c1cc(NC(=O)Nc2ccc(-c3cn4c(n3)sc3cc(OCCN5CCOCC5)ccc34)cc2)no1 [AC220] | 0 | 0.0185 | > 4170 | > 4170
COc1cc(OC2CCN(C)CC2)ccc1Nc1ncc2c(n1)n(C1CCCC1)c(=O)n2C [AZ 3146] | 0 | 0 | > 4170 | > 4170
C=C(c1ccc(C(=O)O)cc1)c1cc2c(cc1C)C(C)(C)CCC2(C)C [Bexarotene] | 0 | 0 | > 4170 | > 4170
Oc1ncnc2[nH]ncc12 [Allopurinol] | 0 | 0 | > 4170 | > 4170
Cc1c2oc3c(C)ccc(C(=O)N[C@@H]4C(=O)N[C@H](C(C)C)C(=O)N5CCC[C@H]5C(=O)N(C)CC(=O)N(C)[C@@H](C(C)C)C(=O)O[C@@H]4C)c3nc-2c(C(=O)N[C@@H]2C(=O)N[C@H](C(C)C)C(=O)N3CCC[C@H]3C(=O)N(C)CC(=O)N(C)[C@@H](C(C)C)C(=O)O[C@@H]2C)c(N)c1=O [Dactinomycin] | 36.8 | 38.3 | 4.19 | 2.18
CS(=O)(=O)CCNCc1ccc(-c2ccc3ncnc(Nc4ccc(OCc5cccc(F)c5)c(Cl)c4)c3c2)o1 [Lapatinib] | 4.84 | 0 | 1150 | > 4170
Clc1ccc(Nc2nnc(Cc3ccncc3)c3ccccc23)cc1 [Vatalanib] | 0 | 0 | > 4170 | > 4170
Cc1ccc(NC(=O)c2ccc(CN3CCN(C)CC3)cc2)cc1Nc1nc(-c2cccnc2)cs1 [Masitinib] | 0.717 | 4.31 | > 4170 | 1410
CCC1(c2ccc(N)cc2)CCC(=O)NC1=O (stereo unspecified) [Aminoglutethimide] | 0 | 0 | > 4170 | > 4170
CCC1=C[C@@H]2CN(C1)Cc1c([nH]c3ccccc13)[C@@](C(=O)OC)(c1cc3c(cc1OC)N(C)[C@H]1[C@@](O)(C(=O)OC)[C@H](OC(C)=O)[C@]4(CC)C=CCN5CC[C@]31[C@@H]54)C2 [Vinorelbine] | 23.5 | 24 | 31 | 23.6
CCN(CC)CCNC(=O)c1c(C)[nH]c(/C=C2\C(=O)Nc3ccc(F)cc32)c1C [Sunitinib] | 5.44 | 4.28 | 2770 | 3520
CC(=O)Nc1cccc(-n2c(=O)n(C3CC3)c(=O)c3c(Nc4ccc(I)cc4F)n(C)c(=O)c(C)c32)c1 | 22 | 22.5 | 2.46 | 2.21
N[C@@H](CSC(c1ccccc1)(c1ccccc1)c1ccccc1)C(=O)O [S-trityl-L-cysteine] | 15.2 | 15.6 | 929 | 713
COc1ccc(S(=O)(=O)Nc2cccnc2Nc2ccc(O)cc2)cc1 [ABT-751] | 13.9 | 13.5 | 253 | 308
CN(C)c1nc(N(C)C)nc(N(C)C)n1 [Altretamine] | 0 | 0 | > 4170 | > 4170
CC[C@H](Nc1ncnc2[nH]cnc12)c1nc2cccc(F)c2c(=O)n1-c1ccccc1 [CAL-101] | 0 | 2.02 | > 4170 | 1090
